Measured values published in patent US20240025899A1, “TRIHETEROCYCLIC DERIVATIVE, AND PHARMACEUTICAL COMPOSITION AND APPLICATION THEREOF” (SHANGHAI DE NOVO PHARMATECH CO., LTD., priority 2020, published 2024).
Structures can show the parent of a compound that is named as a salt.

Columns and labels:
ATR/ATRIP kinase = ATR/ATRIP kinase (Homo sapiens (Human), UniProt Q13535); test: ATR enzyme assay (HTRF, phosphorylation of substrate protein P53); format: biochemical; settings: substrate P53, TR-FRET
Description: In this experiment, the phosphorylation level of substrate protein P53 (Eurofins, 14-952) was detected by HTRF technology to measure the activity of ATR/ATRIP (Eurofins, 14-953) kinase. Reaction buffer (25 mM HEPES pH 8.0, 0.01% Brij-35, 1% Glycerol, 5 mM DTT, 1 mg/mL BSA), termination buffer (12.5 mM HEPES pH 8.0, 0.005% Brij-35, 0.5% Glycerol, 250 mM EDTA) and assay buffer (50 mM HEPES pH 7.0, 150 mM NaCl, 267 mM KF, 0.1% sodium cholate, 0.01% Tween 20) were prepared in advance. ATR/ATRIP was diluted with reaction buffer to a working solution of 2 ng/μL, and the substrate protein P53 was diluted with reaction buffer to a working solution of 80 nM, and 4 nM of ATP (Sigma, A2383) working solution (containing 40 mM MnCl2) was prepared with reaction buffer. The compound was 3-fold diluted with DMSO, then diluted with reaction buffer into a working solution, then added to a 384-well plate at 2.5 μL/well, and centrifuged at 1500 rpm for 40 s. Then 2.5 μL of ATR/ATRIP working solution, P53 working solution and ATP working solution were added into the 384-well plate, centrifuged at 1500 rpm for 40 s and reacted at room temperature for 30 minutes. After the reaction was completed, 5 μL of termination buffer was added to each well, and centrifuged at 1500 rpm for 40 s. Antibody working solution containing 0.083 μg/mL anti-phospho-p53 (Ser15)-K (CisBio, cat. 61P08KAE) and 5 μg/mL anti-GST-d2 (CisBio, cat. 61GSTDLA) was prepared with assay buffer and added to the 384-well plate at 5 μL/well, then centrifuged at 1500 rpm for 40 s and reacted overnight at room temperature. Microplate reader (Tecan, Infinite M1000 Pro) was used to detect TR-FRET, and the data were analyzed with Graphpad software, and the four-parameter equation was used to fit the curve and calculate the IC50 value of the inhibitor (Table 1).

[1] = system: LOVO human colon cancer cell line; test: Cell proliferation assay (Cell titer glo); format: cell-based; settings: LOVO cells, 72 hours
Description: In the present disclosure, cell assays were used to evaluate the biological activity of compounds. LOVO (Nanjing Cobioer), a human colon cancer cell line, was cultured in a Dulbecco's Modified Eagle's medium 96-well plate, supplemented with 10% fetal bovine serum and 1% P/S, and the culture environment was 37° C. and 5% CO2. Compound concentrations were ranged from 4.5 nM to 30 μM. The stock solution of the test compound was dissolved in DMSO and added to the medium at the indicated concentration, and incubated for 72 hours. Negative control cells were treated with vehicle only. In some experiments, known ATR inhibitors were added as positive controls. Cell viability was evaluated using the Cell titer glo kit (CTG, Promega) under the instructions of the product specification. The data were analyzed using Graphpad software, and IC50 values and compound fitting curves were obtained (Table 2).

CYP2D6 = CYP2D6 (Homo sapiens (Human), UniProt P10635); test: Cytochrome oxidase P450 inhibition study, CYP2D6; format: in vitro ADME; settings: human liver microsomes; read-out: IC50 2D6
Description: LC-MS/MS methods were used to evaluate the inhibitory effects of compounds on CYP2C19, 2D6 and 3A4 subtypes. In this method, the test compound was mixed with a solution of human liver microsomes containing CYP model substrates, and incubated together under the addition of NADPH, then the inhibitory IC50 of the compound on CYP2C19, 2D6 and 3A4 was calculated by measuring the amount of metabolites of the model substrate in the reaction solution. The specific experimental method is as follows:
Compounds to be tested were prepared as stock solutions at 10 mM concentration with DMSO and then diluted to 4 mM with acetonitrile solution. At the same time, the corresponding reference inhibitor solutions for CYP subtypes were prepared, for example, the reference inhibitor was Ketoconazole, then these two compounds were prepared separately ([…] of inhibitor DMSO stock solution+[…] of acetonitrile), and the samples prepared under the above conditions were at 400× concentration. Then, the above solution was 3-fold diluted with DMSO/acetonitrile mixture (v/v: 40/60) to prepare the final test solution, and seven concentration points were set for each test compound, and the initial test final concentration was 10 μM. […]
[…] of human liver microsome solution (0.2 mg/mL) was added to each well containing the test compound in the 96-well plate, and then 2 mL of the final test sample of test compounds prepared by serial dilution as described above was added thereto; for each well corresponding to the reference inhibitors, […] of human liver microsome solution (0.2 mg/mL) and 1 mL of the final test sample were added. […] The inhibition rate was determined by comparing the amount of model substrate metabolites at each test concentration without test substance addition, in the GraphPad Prism 5.0 software, the logarithm of the test concentration was used as the abscissa and the inhibition rate was used as the ordinate to perform a linear regression (Sigmoidal (non-linear) dose-response model) analysis to obtain the IC50 value of the test compound.

Sequence of ATR/ATRIP kinase (Q13535 whole entry): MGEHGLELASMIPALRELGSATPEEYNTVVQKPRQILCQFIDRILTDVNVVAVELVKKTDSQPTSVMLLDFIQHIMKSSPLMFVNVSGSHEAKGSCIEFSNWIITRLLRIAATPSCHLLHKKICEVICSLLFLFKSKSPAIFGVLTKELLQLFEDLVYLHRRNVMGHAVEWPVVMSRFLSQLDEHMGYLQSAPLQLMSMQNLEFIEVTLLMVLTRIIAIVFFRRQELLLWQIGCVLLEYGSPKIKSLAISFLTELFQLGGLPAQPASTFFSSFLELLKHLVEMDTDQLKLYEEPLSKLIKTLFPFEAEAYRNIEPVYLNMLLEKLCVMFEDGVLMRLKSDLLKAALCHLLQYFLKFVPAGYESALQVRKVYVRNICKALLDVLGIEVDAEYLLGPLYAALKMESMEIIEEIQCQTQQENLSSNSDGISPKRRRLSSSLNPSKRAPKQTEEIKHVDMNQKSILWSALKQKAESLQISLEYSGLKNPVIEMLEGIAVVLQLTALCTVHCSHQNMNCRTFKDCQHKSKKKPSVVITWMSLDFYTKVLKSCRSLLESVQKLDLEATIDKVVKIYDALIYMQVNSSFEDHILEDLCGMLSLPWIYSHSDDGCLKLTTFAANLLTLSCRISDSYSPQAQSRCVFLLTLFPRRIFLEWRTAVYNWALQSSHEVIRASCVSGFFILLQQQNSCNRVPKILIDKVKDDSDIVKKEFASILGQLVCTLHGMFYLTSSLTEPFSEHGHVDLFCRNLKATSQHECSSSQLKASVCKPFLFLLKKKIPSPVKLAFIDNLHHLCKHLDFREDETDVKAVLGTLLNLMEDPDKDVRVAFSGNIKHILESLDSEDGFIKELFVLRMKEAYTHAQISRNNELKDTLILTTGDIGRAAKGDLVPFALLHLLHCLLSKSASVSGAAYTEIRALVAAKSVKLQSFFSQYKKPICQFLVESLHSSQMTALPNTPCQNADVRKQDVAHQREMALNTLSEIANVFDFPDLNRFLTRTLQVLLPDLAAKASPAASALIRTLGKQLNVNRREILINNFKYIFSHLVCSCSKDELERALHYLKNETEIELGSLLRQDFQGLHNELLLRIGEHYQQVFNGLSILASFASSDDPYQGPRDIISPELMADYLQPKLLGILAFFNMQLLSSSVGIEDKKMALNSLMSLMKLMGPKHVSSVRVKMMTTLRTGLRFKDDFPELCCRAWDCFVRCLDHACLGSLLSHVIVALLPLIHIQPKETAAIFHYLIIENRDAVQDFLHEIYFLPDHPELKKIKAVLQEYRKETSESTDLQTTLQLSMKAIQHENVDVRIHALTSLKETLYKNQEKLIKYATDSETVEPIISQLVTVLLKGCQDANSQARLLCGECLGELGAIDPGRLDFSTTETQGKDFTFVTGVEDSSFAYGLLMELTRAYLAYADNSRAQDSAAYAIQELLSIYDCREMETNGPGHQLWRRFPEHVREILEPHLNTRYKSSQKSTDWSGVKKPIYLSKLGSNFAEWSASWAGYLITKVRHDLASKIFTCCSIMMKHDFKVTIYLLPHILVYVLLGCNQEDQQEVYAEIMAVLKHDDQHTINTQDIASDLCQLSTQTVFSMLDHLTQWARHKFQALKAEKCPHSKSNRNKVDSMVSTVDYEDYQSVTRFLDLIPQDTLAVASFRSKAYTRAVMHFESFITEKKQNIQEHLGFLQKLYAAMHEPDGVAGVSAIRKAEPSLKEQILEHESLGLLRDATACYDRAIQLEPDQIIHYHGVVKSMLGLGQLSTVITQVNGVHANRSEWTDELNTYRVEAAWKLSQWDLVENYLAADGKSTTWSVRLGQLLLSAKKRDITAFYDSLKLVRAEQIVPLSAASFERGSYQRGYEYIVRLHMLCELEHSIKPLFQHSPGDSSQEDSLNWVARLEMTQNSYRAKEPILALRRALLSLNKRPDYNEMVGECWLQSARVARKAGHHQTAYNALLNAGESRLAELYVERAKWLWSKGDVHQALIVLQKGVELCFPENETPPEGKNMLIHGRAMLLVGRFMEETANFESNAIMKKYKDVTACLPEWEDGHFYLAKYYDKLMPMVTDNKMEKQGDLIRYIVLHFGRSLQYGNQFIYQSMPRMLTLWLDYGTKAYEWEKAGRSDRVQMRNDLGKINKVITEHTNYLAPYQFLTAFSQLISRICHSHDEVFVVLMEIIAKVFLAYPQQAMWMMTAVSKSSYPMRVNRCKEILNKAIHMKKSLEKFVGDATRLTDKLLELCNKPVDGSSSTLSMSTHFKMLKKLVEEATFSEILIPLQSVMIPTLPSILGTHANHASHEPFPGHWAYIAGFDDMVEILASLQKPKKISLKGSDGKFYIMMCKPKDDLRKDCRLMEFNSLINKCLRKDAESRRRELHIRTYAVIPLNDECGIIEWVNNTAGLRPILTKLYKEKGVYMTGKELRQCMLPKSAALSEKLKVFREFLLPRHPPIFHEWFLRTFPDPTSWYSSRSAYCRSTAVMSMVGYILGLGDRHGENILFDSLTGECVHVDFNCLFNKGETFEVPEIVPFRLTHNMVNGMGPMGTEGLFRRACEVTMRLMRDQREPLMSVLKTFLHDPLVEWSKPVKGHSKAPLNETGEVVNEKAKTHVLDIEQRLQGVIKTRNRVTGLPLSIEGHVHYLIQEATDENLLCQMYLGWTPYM
Sequence of ATR/ATRIP kinase (Q8WXE1 whole entry partner): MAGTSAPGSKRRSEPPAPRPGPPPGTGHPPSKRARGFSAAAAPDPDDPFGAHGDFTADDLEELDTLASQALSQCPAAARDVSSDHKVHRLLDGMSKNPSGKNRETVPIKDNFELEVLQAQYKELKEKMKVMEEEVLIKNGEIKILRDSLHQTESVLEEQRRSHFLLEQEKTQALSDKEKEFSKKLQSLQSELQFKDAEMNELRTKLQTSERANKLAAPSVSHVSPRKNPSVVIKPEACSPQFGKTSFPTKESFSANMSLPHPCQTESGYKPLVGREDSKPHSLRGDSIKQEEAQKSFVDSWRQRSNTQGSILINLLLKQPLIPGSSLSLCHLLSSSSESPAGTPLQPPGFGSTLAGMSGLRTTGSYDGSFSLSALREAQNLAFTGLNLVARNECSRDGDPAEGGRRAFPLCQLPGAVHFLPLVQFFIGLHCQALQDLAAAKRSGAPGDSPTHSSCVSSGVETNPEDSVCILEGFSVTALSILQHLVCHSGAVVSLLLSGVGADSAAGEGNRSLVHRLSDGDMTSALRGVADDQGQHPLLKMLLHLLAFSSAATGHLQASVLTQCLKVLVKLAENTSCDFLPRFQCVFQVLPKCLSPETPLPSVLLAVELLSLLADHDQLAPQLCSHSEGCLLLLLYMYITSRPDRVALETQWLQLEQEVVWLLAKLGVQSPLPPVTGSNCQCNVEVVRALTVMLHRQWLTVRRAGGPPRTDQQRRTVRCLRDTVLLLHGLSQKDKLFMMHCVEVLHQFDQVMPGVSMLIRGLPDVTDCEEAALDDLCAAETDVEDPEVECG
Sequence of CYP2D6 (P10635 whole entry): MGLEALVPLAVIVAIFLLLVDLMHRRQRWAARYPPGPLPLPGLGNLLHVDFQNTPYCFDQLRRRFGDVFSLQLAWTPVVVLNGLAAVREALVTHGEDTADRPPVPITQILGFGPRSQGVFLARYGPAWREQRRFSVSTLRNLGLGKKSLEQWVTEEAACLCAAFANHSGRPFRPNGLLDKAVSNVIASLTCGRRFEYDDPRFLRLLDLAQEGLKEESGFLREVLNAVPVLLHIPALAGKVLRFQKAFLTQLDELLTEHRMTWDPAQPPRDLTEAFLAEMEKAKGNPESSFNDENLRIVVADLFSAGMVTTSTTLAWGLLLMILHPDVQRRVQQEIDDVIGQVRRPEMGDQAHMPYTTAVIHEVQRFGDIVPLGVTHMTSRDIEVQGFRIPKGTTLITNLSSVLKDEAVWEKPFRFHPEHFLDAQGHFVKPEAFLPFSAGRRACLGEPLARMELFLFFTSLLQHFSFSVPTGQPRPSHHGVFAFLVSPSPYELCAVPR

SMILES | IC50 (ATR/ATRIP kinase) [nM] | IC50 [1] [nM] | IC50 (CYP2D6) [nM]
C[C@@H]1COCCN1c1nc2c(cnn2-c2cc[nH]n2)c2c1ccn2S(C)(=O)=O [Compound 1, (R)-3-methyl-4-(1-(methylsulfonyl)-6-(1H-pyrazol-3-yl)-1,6-dihydropyrazolo[3,4-b]pyrrolo[2,3-d]pyridin-4-yl)morpholine trifluoroacetate] | 1.2 | 29.6 | > 10000
C[C@@H]1COCCN1c1nc2c(cnn2-c2cc[nH]n2)c2c1CCN2S(C)(=O)=O [Compound 2, (R)-3-methyl-4-(1-(methylsulfonyl)-6-(1H-pyrazol-3-yl)-1,2,3,6-tetrahydropyrazolo[3,4-b]pyrrolo[2,3-d]pyridin-4-yl)morpholine trifluoroacetate] | 0.69 | 37.3 | > 10000
